Measurements reported in paper PMC6264390, “Design, Synthesis and Structure-activity Studies of Rhodanine Derivatives as HIV-1 Integrase Inhibitors” (Molecules, 2010).
Read-outs that look alike come from different tables or passages of the source.

Columns and labels:
HIV-1 IN = biological target: T1, HIV-1 IN (Human immunodeficiency virus type 1 group M subtype B, UniProt P12497); assay: In vitro IN inhibition assay (3’-processing and strand transfer); format: biochemical; conditions: Mn2+ cofactor (7.5 mM MnCl2)
T1 construct: pre-incubated with purified recombinant IN (at a final concentration of 200 nM); made in house
Procedure: (§1) All compounds were dissolved in DMSO to a final stock concentration of 10 mM and stored at −20 °C. Initial screening for IN inhibitory effect was done at 100 μM and dilutions were made in DMSO. Compounds showing at least 50% inhibition at 100 μM were selected for IC50 determinations. γ-[^32P]-ATP was purchased from Perkin Elmer (Waltham, MA, USA). The expression system for wild-type IN was a generous gift of Dr. Robert Craigie, Laboratory of Molecular Biology, NIDDK, NIH (Bethesda, MD, USA). His-tagged APE1 was purified from an expression system kindly provided by Dr. Tom Curran, Department of Developmental Neurobiology, St. Jude Children’s Research Hospital (Memphis, TN, USA).
(§2) 21-mer oligonucleotides used in IN inhibition assay [21top (5’-[…]-3’) and 21bot (5’-ACTGCTAGAGATTTTCCA CAC-3’)] were purchased from Integrated DNA Technologies (Coralville, IA, USA) and purified by UV shadowing on polyacrylamide gel. The oligonucleotides used in APE1 inhibition assay [top strand: 5′-ATTTCACCGGTACG(F)TCTAGAATC CG-3′ containing the tetrahydrofuran synthetic abasic residue (F), and bottom strand: 3′-TAAAGTGG CCATGC(C)AGATCTTAGGC-5′] were purchased from The Midland Certified Reagent Company (Midland, TX, USA). To analyze the extent of 3’-processing and strand transfer with 5’-end labeled substrates, 21top was 5’-end labeled using T4 polynucleotide kinase (Epicentre, Madison, WI, USA) and [γ-^32P]-ATP (Perkin Elmer, Waltham, MA, USA). The kinase was heat-inactivated at 95 °C and 21bot was added in […]. The reaction mixture was allowed to cool slowly to room temperature, and purified through a spin-25 minicolumn (USA Scientific, Ocala, FL, USA) to separate annealed double-stranded oligonucleotide from unincorporated material. The oligonucleotides used in the APE1 inhibition assay were labeled using a similar protocol.
To determine the extent of 3’-processing and strand transfer, the test compounds, diluted in DMSO, were pre-incubated with purified recombinant IN (at a final concentration of 200 nM) in the reaction buffer [50 mM NaCl, 1 mM HEPES (pH 7.5), 50 μM EDTA, 50 μM dithiothreitol, 10% glycerol (w/v), 7.5 mM MnCl2, 0.1 mg mL–1 bovine serum albumin, 10 mM 2-mercaptoethanol, 10% dimethyl sulfoxide, and 25 mM MOPS (pH 7.2)] at 30 °C for 30 min. For Mg^2+ assay, 7.5 mM MgCl2 was substituted for MnCl2 and an optimal concentration of PEG was included in the reaction buffer. Following the pre-incubation, 20 nM of the 5’-end ^32P-labeled linear oligonucleotide substrate was added to the reaction mixture and incubated for an additional 1 h. Reactions were quenched by addition of 50X loading dye (98% deionized formamide, 10 mM EDTA, 0.025% xylene cyanol, and 0.025 % bromophenol blue). An aliquot was subjected to electrophoresis on a denaturing polyacrylamide gel (0.09 M tris–borate, pH 8.3, 2 mM EDTA, 20% acrylamide, 8M urea). Gels were dried under vacuum, exposed in a PhosphorImager cassette and visualized with a Typhoon 8610 Variable Mode Imager (Amersham Biosciences). Quantification was done with Image Quant 5.2 software. Percent inhibition (%I) was calculated using the following equation: %I = 100 × [1 − (D − C) / (N − C)] where C, N, and D are the fractions of 21-mer substrate converted into 19-mer (product of 3’-processing) or strand-transfer products for DNA alone, DNA plus IN, and DNA, IN plus test compound, respectively. IC50 values were determined by plotting the logarithm of test compound concentrations as a function of %I to obtain the concentration that produced 50% inhibition.

[1] = biological target: T2, human apurinic/apyrimidinic endonuclease 1 (APE1) (Homo sapiens, UniProt P27695); assay: APE1 inhibition assay; format: biochemical
T2 construct: His; made in house
Procedure: as §1, §2
APE1 inhibition assay was performed as previously described. To determine the extent of endonucleolytic cleavage of the abasic residue, the test compounds, diluted in DMSO, were preincubated with recombinant APE1 at a final concentration of 0.05 nM in the reaction buffer [50 mM NaCl, 1 mM HEPES, pH 7.5, 50 μM EDTA, 50 μM dithiothreitol, 10% glycerol (w/v), 7.5 mM MnCl2, 0.1 mg mL‑1 bovine serum albumin, 10 mM 2-mercaptoethanol, 10% DMSO, and 25 mM MOPS, pH 7.2] at 30 °C for 10 min. Following preincubation, 200 nM of the 5′-end ^32P-labeled linear oligonucleotide substrate was added, and incubated for an additional 10 minutes. Reactions were quenched by the addition of an equal volume (16 μL) of loading dye (98% deionized formamide, 10 mM EDTA, 0.025% xylene cyanol, and 0.025% bromophenol blue). An aliquot (5 μL) was electrophoresed on a denaturing 20% polyacrylamide gel (0.09 M tris-borate pH 8.3, 2 mM EDTA, 20% acrylamide, 8 M urea). The gels were dried, exposed in a PhosphorImager cassette and analyzed using a Typhoon 8610 Variable Mode Imager (Amersham Biosciences). Quantification of enzyme inhibition was done using Image Quant 5.2 software. The percent inhibition (% I) was calculated using the following equation: %I = 100 × [1 − (D − C) / (N − C)] where C, N, and D are the fractions of 26-mer substrate converted to 13-mer incision products (or integration products) for DNA alone, DNA plus APE1, and DNA, APE1 plus test compound, respectively. IC50 values were determined by plotting the logarithm of compound concentration as a function of %I to obtain the concentration that produced 50% inhibition. An optimum concentration of APE1 enzyme, at which there is complete conversion of the synthetic abasic-site containing oligonucleotide substrate to its cleaved product without subsequent exonuclease activity, was used in the assay.

[2] = read-out: Inhibition of IN catalytic activity IC50, 3’-Processing
[3] = read-out: Inhibition of IN catalytic activity IC50, Strand Transfer
[4] = read-out: Inhibition of APE1 catalytic activity IC50

T2 sequence (P27695 whole entry): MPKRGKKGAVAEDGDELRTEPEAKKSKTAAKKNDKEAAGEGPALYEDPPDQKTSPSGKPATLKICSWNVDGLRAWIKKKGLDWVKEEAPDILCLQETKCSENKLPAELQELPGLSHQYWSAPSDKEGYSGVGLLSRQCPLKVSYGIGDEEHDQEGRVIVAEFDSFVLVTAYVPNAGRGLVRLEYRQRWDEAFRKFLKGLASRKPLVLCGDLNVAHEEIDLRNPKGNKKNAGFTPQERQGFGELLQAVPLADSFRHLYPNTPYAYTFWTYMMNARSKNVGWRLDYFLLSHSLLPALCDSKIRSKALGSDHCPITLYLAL

SMILES	IC50 (HIV-1 IN; [2])	IC50 (HIV-1 IN; [3])	IC50 [1, 4]	melting point	IC50 [1]
O=C(Nc1ccc(O)cc1)C(=S)NN1C(=O)C(=Cc2cccc([N+](=O)[O-])c2O)SC1=S [Compound 43, 2-{[5-(2-Hydroxy-3-nitrobenzylidene)-4-oxo-2-thioxo-1,3-thiazolidin-3-yl]amino}-N-(4-hydroxy-phenyl)-2-thioxoacetamide]	> 100 µM	88 µM	> 100 µM	179 to 180 °C	
COc1cc(NC(=O)C(=S)NN2C(=O)C(=Cc3ccc([N+](=O)[O-])o3)SC2=S)cc(OC)c1OC [Compound 19, 2-{5-[(5-Nitro-2-furyl)methylene]-4-oxo-2-thioxo-1,3-thiazolidin-3-yl}amino-2-thioxo-N-(3,4,5-tri-methoxyphenyl)acetamide]	40 ± 28 µM	25 ± 11 µM	> 100 µM	201 to 202 °C	
COc1cc(NC(=O)C(=S)NN2C(=O)C(=Cc3cc(Cl)ccc3O)SC2=S)cc(OC)c1OC [Compound 27, 2-{[5-(5-Chloro-2-hydroxybenzylidene)-4-oxo-2-thioxo-1,3-thiazolidin-3-yl]amino}-2-thioxo-N-(3,4,5-trimethoxyphenyl)acetamide]	83 ± 25 µM	20 µM	> 100 µM	216 to 217 °C	
O=C(Nc1ccc(O)cc1)C(=S)NN1C(=O)C(=Cc2cc([N+](=O)[O-])ccc2O)SC1=S [Compound 44, 2-{[5-(2-Hydroxy-5-nitrobenzylidene)-4-oxo-2-thioxo-1,3-thiazolidin-3-yl]amino}-N-(4-hydroxy-phenyl)-2-thioxoacetamide]	53 ± 8 µM	45 ± 14 µM	> 100 µM	199 to 200 °C	
O=C(Nc1cccc([N+](=O)[O-])c1)C(=S)NN1C(=O)C(=Cc2ccc([N+](=O)[O-])o2)SC1=S [Compound 14, 2-{-5-[(5-Nitro-2-furyl)methylene]-4-oxo-2-thioxo-1,3-thiazolidin-3-yl}amino-N-(3-nitrophenyl)-2-thioxoacetamide]	58 µM	58 µM		152 to 153 °C	> 100 µM
COc1cc(C=C2SC(=S)N(NC(=S)C(=O)Nc3ccc(-n4cnnn4)c(C)c3)C2=O)cc(OC)c1OC [Compound 24, N-[3-methyl-4-(1H-tetrazol-1-yl)phenyl]-2-{[4-oxo-2-thioxo-5-(3,4,5-trimethoxybenzylidene)-1,3-thiazolidin-3-yl]amino}-2-thioxoacetamide]	> 100 µM	> 100 µM	> 100 µM	173 to 174 °C	
C=CCc1cccc(C=C2SC(=S)N(NC(=S)C(=O)Nc3ccc(O)cc3)C2=O)c1O [Compound 46, 2-{[5-(3-Allyl-2-hydroxybenzylidene)-4-oxo-2-thioxo-1,3-thiazolidin-3-yl]amino}-N-(4-hydroxy-phenyl)-2-thioxoacetamide]	> 100 µM	100 µM	> 100 µM	153 to 154 °C	
COc1cc(NC(=O)C(=S)NN2C(=O)C(=Cc3cc(N=Nc4ccccc4)ccc3O)SC2=S)cc(OC)c1OC [Compound 34, 2-[(5-{2-Hydroxy-5-[phenyldiazenyl]benzylidene}-4-oxo-2-thioxo-1,3-thiazolidin-3-yl)amino]-2-thioxo-N-(3,4,5-trimethoxyphenyl)acetamide]	33 ± 19 µM	26 ± 14 µM	> 100 µM	149 to 150 °C	
O=C(Nc1ccc(F)cc1)C(=S)NN1C(=O)C(=Cc2ccc([N+](=O)[O-])o2)SC1=S [Compound 12, N-(4-fluorophenyl)-2-{5-[(5-nitro-2-furyl)methylene]-4-oxo-2-thioxo-1,3-thiazolidin-3-yl}amino-2-thioxoacetamide]	100 µM	93 µM	89 ± 13 µM	155 to 156 °C	
Cc1cc(NC(=O)C(=S)NN2C(=O)/C(=C\c3ccc([N+](=O)[O-])o3)SC2=S)ccc1-n1cnnn1 [Compound 21, N-[3-methyl-4-(1H-tetrazol-1-yl)phenyl]-2-{5-[(5-nitro-2-furyl)methylene]-4-oxo-2-thioxo-1,3-thia-zolidin-3-yl}amino-2-thioxoacetamide]	> 100 µM	> 100 µM	> 100 µM	161 to 162 °C	
COc1cc(C=C2SC(=S)N(NC(=S)C(=O)Nc3cc(OC)c(OC)c(OC)c3)C2=O)cc(OC)c1OC [Compound 22, 2-{[4-Oxo-2-thioxo-5-(3,4,5-trimethoxybenzylidene)-1,3-thiazolidin-3-yl]amino}-2-thioxo-N-(3,4,5-tri-methoxyphenyl)acetamide]	> 100 µM	90 µM	> 100 µM	196 to 197 °C	
COc1cc(NC(=O)C(=S)NN2C(=O)C(=Cc3cc([N+](=O)[O-])ccc3O)SC2=S)cc(OC)c1OC [Compound 30, 2-{[5-(2-Hydroxy-5-nitrobenzylidene)-4-oxo-2-thioxo-1,3-thiazolidin-3-yl]amino}-2-thioxo-N-(3,4,5-trimethoxyphenyl)acetamide]	47 ± 30 µM	> 100 µM	> 100 µM	205 to 206 °C	
COc1cc(NC(=O)C(=S)NN2C(=O)C(=Cc3cc(Br)cc(Br)c3O)SC2=S)cc(OC)c1OC [Compound 37, 2-{[5-(3,5-Dibromo-2-hydroxybenzylidene)-4-oxo-2-thioxo-1,3-thiazolidin-3-yl]amino}-2-thioxo-N-(3,4,5-trimethoxyphenyl)acetamide]	33 ± 7 µM	35 ± 6 µM	> 100 µM	221 to 222 °C	
CCOc1cc(-n2cnnn2)c(OCC)cc1NC(=O)C(=S)NN1C(=O)C(=Cc2ccc([N+](=O)[O-])o2)SC1=S [Compound 20, N-[2,5-diethoxy-4-(1H-tetrazol-1-yl)phenyl]-2-{5-[(5-nitro-2-furyl)methylene]-4-oxo-2-thioxo-1,3-thiazolidin-3-yl}amino-2-thioxoacetamide]	> 100 µM	85 ± 21 µM	> 100 µM	136 to 138 °C	
